The values below come from patent publication US20060074073A1, “Therapeutic combinations comprising poly (ADP-ribose) polymerases inhibitor” (AGOURON PHARMACEUTICALS, INC., priority 2004, published 2006).

Marks after values point to notes of the source that are not given here.

The test system of one data set is SW620 xenograft. The data set is described as follows: In vivo antitumor efficacy with irinotecan, SW620 xenograft. Set-up: species or system mice. The source says: In no combination study was antagonism observed.
The test system of another data set is PARP. The data set is described as follows: Tumor PARP catalytic activity, 32P-NAD incorporation in SW620 tumor homogenates of treated animals. Format: in vivo, mice. The settings on record: temozolomide alone, oral gavage. How it is done: Tumours were excised and were snap frozen in liquid nitrogen and stored at −80° C. until homogenised for analysis. The specimen was defrosted on ice and the wet weight documented. The tissue was homogenised using a Pro 2000 instrument (Pro Scientific Inc, Monroe, Conn., USA) in 3 volumes (i.e. 1 mg plus 3 μl isotonic buffer −7 mM Hepes, 26 mM KCl, 0.1 mM dextran, 0.4 mM EGTA, 0.5 mM MgCl2, 45 mM sucrose, pH 7.8), giving a homogenate with an overall dilution of 1 in 4. The homogenate was kept on ice throughout the process, and homogenisation was performed in 10 second bursts to prevent undue warming of the sample. Prior to assay the samples were further diluted with isotonic buffer where necessary to give a final dilution of 1 in 40 for [^32P]NAD incorporation assay or 1 in 1000 for immunoblot aaasy.
Briefly, cells were suspended in hypotonic buffer (9 mM HEPES pH 7.8, 4.5% (v/v) dextran, 4.5 mM MgCl2 and 5 mM DTT) at 1.5×10^7/ml on ice for 30 minutes then 9 vol of isotonic buffer (40 mM HEPES pH 7.8, 130 mM KCl, 4% (v/v) dextran, 2 mM EGTA, 2.3 mM MgCl2, 225 mM sucrose and 2.5 mM DTT) was added. The reaction was started by adding 300 μl cells to 100 μl 300 μM NAD^+ containing [^32P]-NAD^+ (Amersham, UK), and terminated by the addition of 2 ml ice cold 10% (w/v) TCA+10% (w/v) sodium pyrophosphate. After 30 min on ice the precipitated ^32P—labelled ADP-ribose polymers were filtered on Whatman GC/C filters (Whatman Intemational Ltd, Kent, UK), washed 5 times with 1% (v/v) TCA/1% (v/v) sodium pyrophosphate, dried and counted. PARP inhibitory IC50 values were calculated from computer-fitted curves (GraphPad Software, Inc., San Diego, Calif.).
Tumour homogenates were assayed in a similar manner; however, the homogenisation process introduces sufficient DNA damage to maximally stimulate PARP activity and oligonucleotide was not therefore required. Results were expressed in terms of pmol PAR former per mg tumour.
Preparation of Tumour/Tissue Samples • 1. The frozen tumour samples are weighed. • 2. 3 volumes (i.e. 3 μl solution added for each 1 mg tissue) of isotonic buffer plus DTT is added to the tumour sample. This is stored on ice until and during homogenisation. • 3. The sample is homogenised on ice within a Class II cabinet for 10-second bursts until no detectable macroscopic pieces of tissue are visible. • 4. Sufficient volume of the homogenate is diluted 1 in 10 with isotonic buffer plus DTT to provide an overall dilution of 1 in 40 from the original sample. A final volume of 3 ml is sufficient for triplicate sampling and a subsequent protein assay. • 5. The diluted homogenate is stored on ice and assayed within one hour as below.
PARP Assay of Tumour/Tissue Samples • 1. ^32P 600 μM NAD solution is prepared fresh on the day of experiment as detailed above. Oligonucleotide stock is removed from storage and defrosted. • 2. Water bath is warmed to 26° C. and set to agitate at 70 oscillations per minute.
3. Reaction test tubes are set up as per table A for the QC samples and as per table B for the homogenate.
• 4. Each QC sample is assayed in triplicate, with T0, +oligo and −oligo samples ×3. (Total of 9 tubes per sample, if low cell counts −oligo samples are omitted.) Homogenates are also assayed in triplicate, with T0 and reaction samples ×3. (Total 6 tubes per sample). • 5. 2 ml ice cold 10% TCA+10% NaPPi is added to the T0 tubes prior to addition of homogenate or cells, to correct for non-specific binding of radio-label to the filter. • 6. Reaction test tubes homogenates and QC cells are warmed in the water bath to 26° C. for 7 minutes. • 7. Each preparation is vortexed briefly and the reaction is started by adding 300 μl of this to each reaction tube. • 8. The reaction is stopped exactly 6 minutes after addition of homogenate by adding 2 ml of ice cold 10% TCA+10% NaPPi and vortexing. • 9. The tube is then incubated on ice for at least one hour prior to filtration. • 10. […]

The next data set deals with human H460 NSCLC cells. The data set is described as follows: In vitro chemosensitization of standard chemotherapeutic agents. The format is cell-based.
Setting [1] is: GI50 single agent/GI50 agent +0.4 μM Compound I (phosphate salt) instead of glucuronate salt.
The mark [2] stands for this setting: GI50 single agent/GI50 agent +0.4 μM compound of formula 1 as glucuronate salt.

Consider `CCc1c2c(nc3ccc(OC(=O)N4CCC(N5CCCCC5)CC4)cc13)-c1cc3c(c(=O)n1C2)COC(=O)[C@]3(O)CC` [irinotecan, reference compound], for which the “inhibition of SW620 tumor growth as single agent” value in the data set on SW620 xenograft (irinotecan 25 mg/kg, QW×3 IP) is given as “did not significantly inhibit SW620 tumor growth”. In addition, the toxicity entry with SW620 xenograft (irinotecan single agent groups) is reported as “No significant toxicity”.
Turning to `Cn1nnc2c(C(N)=O)ncn2c1=O` [Temozolomide, reference compound], the “PARP Activity (%)” value with PARP came out at 100%. Moreover, the “PF50 (H460)” value in the data set on human H460 NSCLC cells (setting [1]) was 3.7^b.
For the compound `CC[C@@]1(O)C(=O)OCc2c1cc1n(c2=O)Cc2cc3c(CN(C)C)c(O)ccc3nc2-1` [Topotecan], the “PF50 (H460)” value in the data set with human H460 NSCLC cells (setting [2]) was determined as 1.6.
For the compound `O=c1[nH]cc(F)c(=O)[nH]1` [5-Fluorouracil], in the data set with human H460 NSCLC cells (setting [2]), the “PF50 (H460)” value came out at 0.92.
Take `Nc1ccn([C@@H]2O[C@H](CO)[C@@H](O)C2(F)F)c(=O)n1` [Gemcitabine]: in the data set with human H460 NSCLC cells (setting [2]), the “PF50 (H460)” value is 1.2.
On to `Nc1nc2nc[nH]c2c(=S)[nH]1` [6-thioguanine], for which, in the data set on human H460 NSCLC cells (setting [2]), the “PF50 (H460)” value was 1.1.
For `CC(=O)O[C@H]1C(=O)[C@@]2(C)[C@H]([C@H](OC(=O)c3ccccc3)[C@]3(O)C[C@H](OC(=O)[C@H](O)[C@@H](NC(=O)c4ccccc4)c4ccccc4)C(C)=C1C3(C)C)[C@]1(OC(C)=O)CO[C@@H]1C[C@@H]2O` [Paclitaxel], in the data set on human H460 NSCLC cells (setting [2]), the “PF50 (H460)” value came out at 0.77.
Turning to `COc1cc([C@@H]2c3cc4c(cc3[C@@H](O[C@@H]3O[C@@H]5CO[C@@H](C)O[C@H]5[C@H](O)[C@H]3O)[C@H]3COC(=O)[C@H]23)OCO4)cc(OC)c1O` [Etoposide], the “PF50 (H460)” value with human H460 NSCLC cells (setting [1]) is given as 0.75^b.
For the compound `O=C1[O][Pt]2([NH][C@@H]3CCCC[C@H]3[NH]2)[O]C1=O` [Oxaliplatin], the “PF50 (H460)” value in the data set on human H460 NSCLC cells (setting [1]) was 0.98^b.
For the compound `CCc1c2c(nc3ccc(O)cc13)-c1cc3c(c(=O)n1C2)COC(=O)[C@]3(O)CC` [SN-38], the “PF50 (H460)” value in the data set on human H460 NSCLC cells (setting [2]) was 2.2.
Turning to `COc1cccc2c1C(=O)c1c(O)c3c(c(O)c1C2=O)C[C@@](O)(C(=O)CO)C[C@@H]3O[C@H]1C[C@H](N)[C@H](O)[C@H](C)O1` [Doxorubicin], the “PF50 (H460)” value in the data set with human H460 NSCLC cells (setting [2]) stood at 1.1.
In the case of `N.N.[Cl][Pt][Cl]` [Cisplatin], the “PF50 (H460)” value in the data set on human H460 NSCLC cells (setting [2]) is recorded as 1.2.
